Values of other authors in publication PMC3598812, “Evaluation of Anti-Hyperalgesic and Analgesic Effects of Two Benzodiazepines in Human Experimental Pain: A Randomized Placebo-Controlled Study” (PLoS ONE, 2013).

Columns and labels:
[1] = system: patients / volunteers; conditions: placebo-controlled, double-blind trial, 114 outpatients with anxiety; mean doses 59 mg clobazam daily, 25 mg diazepam daily; ref Micromedex 2009; cited from earlier work
[2] = trial protocol, cited from earlier work
[3] = system: healthy male subjects; set-up: method as in PMID 19038771; conditions: capsaicin model, previous study; standard deviation 11.54; cited from earlier work

For CN1C(=O)CN=C(c2ccccc2)c2cc(Cl)ccc21 [diazepam], the “Dizziness, share of treated patients” value [1] is listed as 11% and the “Sedation, share of treated patients” value [1] is listed as 44%.
In the case of O=C1CC(=O)N(c2ccccc2)c2cc(Cl)ccc2N1 [N-desmethylclobazam], the “Half life (t1/2)” value ([2]; drug background) is listed as 50 h.
In the case of CC(C)C[C@H](CN)CC(=O)O [pregabalin], the “Reduction in the area of hyperalgesia” value [3] is listed as 10.91 cm^2.
In the case of CCOC(=O)c1ncn2c1CN(C)C(=O)c1cc(F)ccc1-2 [Flumazenil], the t1/2 ([2]; iv) is given as “about 50 minutes”.
